Read-outs that look alike come from different tables or passages of the source.
Key:
[1] = target: T1, recombinant CpLDH protein (Cryptosporidium parvum, UniProt Q9GT92, F198L/K295E/R251K); settings: for Km: pyruvate/NADH: reduction reaction pH 7.5, lactate/NAD+: oxidation reaction pH 9.2, 25°C; for Kcat / Vmax: pyruvate/NADH: reduction reaction, lactate/NAD+: oxidation reaction
Description: The coding sequence of CpLDH was cloned from cDNA prepared from the AUCP-1 isolate of C. parvum, and the His-tagged CpLDH recombinant protein expressed in Escherichia coli, and purified in native form essentially as previously described. Briefly, cDNA was prepared from total RNA extracted from the AUCP-1 isolate of C. parvum, and the coding sequence of CpLDH (Genebank accession number AF274310.1) was PCR-amplified from the cDNA using the primer pair 5’-[…]-3’ (Forward, with the XhoI restriction site italicized and start codon in bold) and 5’-[…]-3’ (Reverse, with the BamHI site italicized and stop codon in bold). The PCR amplicon was cloned at the XhoI/BamHI site of the pET15b expression vector in-frame with the hexahistidine (His-tag) at the N-terminal and sequenced to confirm identity. The recombinant expression vector was transformed into protein expression E. coli BL21-CodonPlus-DE3-RIL (Stratagene). Transformed E. coli was cultured at 37°C in Luria broth medium (supplemented with 100 μg/ml ampicillin and 34 μg/ml chloramphenicol) to an A600 of 0.8 followed by addition of 1 mM isopropyl-β-D-thiogalactopyranoside to induce protein expression. The expression E. coli was harvested and lysed under native conditions by sonicating in lysis buffer (50 mM NaH2PO4, 300 mM NaCl, 10 mM Imidazole, pH 8.0) containing a 1x EDTA-free protease inhibitor cocktail, 600 units benzonase and 30 kU lysozyme (EMD Millipore). The lysate was clarified by centrifugation and the His-tagged recombinant protein purified under native conditions by nickel-affinity chromatography according to the manufacturer's instructions (Novagen). The wash buffer used contained 50 mM NaH2PO4, 300 mM NaCl and 20 mM Imidazole, pH 8.0, while the elution buffer was composed of 50 mM NaH2PO4, 300 mM NaCl, 250 mM Imidazole, pH 8.0. The eluate was dialyzed using a buffer containing 5 mM Hepes–KOH (pH 7.8) and 0.5 mM DTT. The purity of the recombinant protein was determined by SDS/PAGE, and the concentration measured using a Qubit 3.0 fluorometer (Life technologies). […] On the other hand, the catalytic activity of CpLDH recombinant protein for the oxidation of lactate to pyruvate was determined by measuring the change in optical density of a 100 μl reaction mixture containing 100 mM lactate, 1 mM NAD^+, 100 mM Tris, pH 9.2, with varying concentrations of CpLDH recombinant protein at 25°C. […] In all assays, reaction mixtures without recombinant CpLDH protein were included as negative controls. All assays were performed in triplicate and repeated at least thrice. The change in optical density was measured every 15 seconds for a total of 2 minutes using a Spectra Max 384 Plus plate reader (Molecular Devices) at a wave length of 340 nm.

[2] = target: T1, recombinant CpLDH protein; settings: value in parentheses; ref Zhang et al., 2015 [11]; cited from earlier work
[3] = target: T1, recombinant CpLDH protein
HCT-8 cells = test: Compound cytotoxicity assay (WST-1 cell proliferation reagent)
Description: A colorimetric assay using the cell proliferation reagent WST-1 (Roche, USA) for the quantification of cell viability was performed. […] When the cells were confluent, the old medium was replaced with fresh medium with or without varying concentrations of chemical compound. After 24 h of culture, 10 μl of the cell proliferation reagent WST-1, (for quantification of cell viability) was added to each well, mixed and the plates incubated for 1 h at 37 C with 5% CO2 in the dark. […] Three independent assays were performed and the dose–response curves of the means of triplicate assays were generated using GraphPad PRISM software to derive the half maximal inhibitory concentration (IC50) of compounds in HCT-8 cells.

| SMILES | IC50 (HCT-8 cells) [µM] | MEAN CpLDH INHIBITION (%) [3] [%] | other results |
| --- | --- | --- | --- |
| NC(=O)c1ccc[n+]([C@@H]2O[C@H](COP(=O)([O-])OP(=O)(O)OC[C@H]3O[C@@H](n4cnc5c(N)ncnc54)[C@H](O)[C@@H]3O)[C@@H](O)[C@H]2O)c1 [NAD^+] |  |  | Km [1]: 56 µM; Kcat [1]: 0.11 s⁻¹; Vmax [1]: 0.07 nmol⁻¹ µg⁻¹ min⁻¹; Kcat [2]: 0.70 s⁻¹; Km [2]: 62 µM; Vmax [2]: 0.56 nmol⁻¹ µg⁻¹ min⁻¹ |
| O=C(O)[C@@H]1[C@H](C(=O)O)[C@]2(Cl)C(Cl)=C(Cl)[C@@]1(Cl)C2(Cl)Cl [NSC22225] | 96.8 |  | effect on catalytic activity of recombinant CpLDH (in words) [3]: significantly (P < 0.05) inhibited |
| COC(=O)C1=C(C(=O)OC)SC2(S1)C(C(=O)OC)=C(C(=O)OC)Sc1c2ssc1=O [NSC686349] | 283 | 31.74 |  |
| O=C1/C(=C/c2ccccc2)CN(C(=O)/C=C/c2ccccc2)C/C1=C\c1ccccc1 [NSC638634] | 157 | 0.30 |  |
| O=[N+]([O-])c1ccc2c(N=Nc3c(O)ccc4ccccc34)c(O)cc(S(=O)(=O)[O-])c2c1.[Na+] [NSC73413] | 220 | 54.98 |  |
| O=[N+]([O-])c1cccc2c(N=Nc3ccc4ccccc4c3O)c(O)cc(S(=O)(=O)O)c12.[Na+] [NSC85561] | 103 | 73.45 |  |
| CCOC(C)C(C=NNC(N)=S)=NNC(N)=S (centres unmarked) [NSC82116] | 118 | 10.05 |  |
| O=S(=O)([O-])c1cc(N=Nc2cc(S(=O)(=O)[O-])c3ccccc3c2O)ccc1/C=C/c1ccc(N=Nc2cc(S(=O)(=O)[O-])c3ccccc3c2O)cc1S(=O)(=O)[O-].[Na+].[Na+].[Na+].[Na+] [NSC34931] | 71.1 | 43.74 |  |
| Cc1cc2c(c3oc(C4(C)OC4C4OC4C)cc(=O)c13)C(=O)c1c(O)c(C3CC(C)(N(C)C)C(O)C(C)O3)cc(C3CC(N(C)C)C(O)C(C)O3)c1C2=O (centres unmarked) [NSC70929] | 181 | 13.50 |  |
| NC(=O)C1=CN([C@@H]2O[C@H](COP(=O)(O)OP(=O)(O)OC[C@H]3O[C@@H](n4cnc5c(N)ncnc54)[C@H](O)[C@@H]3O)[C@@H](O)[C@H]2O)C=CC1 [NADH] |  |  | Km [1]: 734 µM; Vmax [1]: 6.29 nmol⁻¹ µg⁻¹ min⁻¹ |
| CC1=C(CCC(=O)O)c2cc3nc(cc4[nH]c(cc4C)cc4[nH]c(cc1n2)cc4C)C(C)=C3CCC(=O)O [NSC18298] | 81.9 | 53.86 |  |
| N#CCCN(CCC#N)Cc1cc(O)c(CN(CCC#N)CCC#N)cc1O [NSC70925] | 142 | 68.17 |  |
| O=C([CH-]C(=O)C(F)(F)F)c1ccccc1.O=C([CH-]C(=O)C(F)(F)F)c1ccccc1.O=C([CH-]C(=O)C(F)(F)F)c1ccccc1.O=C([CH-]C(=O)C(F)(F)F)c1ccccc1.[Eu+3].c1ccncc1 [NSC253995] | 83 | 25.71 |  |
| CC(=O)Nc1ccc(-c2nc3ccccc3s2)cc1 [NSC33006] | 87.3 | 13.74 |  |
| Cc1cc(N(CCCl)CCCl)ccc1/C=N/NC(=O)Cc1cc(=O)oc2cc(O)ccc12 [NSC79688] |  | 40.15 | IC50 (HCT-8 cells; read-out: CYTOTOXICITY IC50, HCT-8 cells, 24 h): 145 µM |
| O=S(=O)(O)c1cc(N=[N+]([O-])c2cc(S(=O)(=O)O)c3ccccc3c2)cc2ccccc12 [NSC37031] | 333 |  | effect on catalytic activity of recombinant CpLDH (in words) [3]: significantly (P < 0.05) inhibited |
| CC(O)CCC(=O)c1ccoc1 (centres unmarked) [NSC349438] | 93.9 | 13.12 |  |
| [Cl][Cd][Cl] [NSC51148] | 39.6 | 64.58 |  |
| O=Cc1cc([N+](=O)[O-])no1 [NSC626433] | 265 | 48.62 |  |
| CC(=O)C(=O)O [Pyruvate, pyruvate] |  |  | Km for pyruvate lower than that for lactate [1]: at least 54 fold; Vmax for pyruvate higher than that for lactate [1]: 123 fold; Km [1]: 731 µM; Kcat [1]: 8.42 s⁻¹; Vmax [1]: 5.04 nmol⁻¹ µg⁻¹ min⁻¹; Kcat [2]: 16.10 s⁻¹; Km [2]: 427 µM; Vmax [2]: 12.89 nmol⁻¹ µg⁻¹ min⁻¹ |
| O=C(CC(=O)C(F)(F)F)c1csc2ccccc12 [NSC80396] | 91.9 | -8.51 |  |
| O=S(=O)(O)c1cc(N=Nc2cc(S(=O)(=O)O)c3cccnc3c2O)ccc1/C=C/c1ccc(N=Nc2cc(S(=O)(=O)O)c3cccnc3c2O)cc1S(=O)(=O)O [NSC638352] | 116 | 43.74 |  |

| SMILES | IC50 (HCT-8 cells) [µM] | MEAN CpLDH INHIBITION (%) [3] [%] | other results |
| --- | --- | --- | --- |
| Cc1ccc2c(sc(-c3ccc4c(c3)sc(-c3ccc(N(C)C)cc3)[n+]4C)[n+]2C)c1S(=O)(=O)[O-].[Cl-] [NSC71948] | 106 | 60.47 |  |
| Cc1cc(O)c(/C=N/C(N)=S)c(=O)o1 [NSC657449] |  | -13.90 |  |
| CCOC(=O)Cc1c(C)c2cc(C(=O)c3ccccc3)c(O)cc2oc1=O [NSC115538] | 158 | 0.63 |  |
| NC(N)=NCCCS(=O)(=O)Nc1ccc(Nc2c3ccccc3nc3cc([N+](=O)[O-])ccc23)cc1 [NSC177365] |  | -212.36 |  |
| CN1CCN(CN2C(=O)C3C4C=CC(C3C2=O)C2C3C(=O)N(CN5CCN(C)CC5)C(=O)C3C42)CC1 (centres unmarked) [NSC361813] |  | -202.91 |  |
| CCOc1ccccc1NC(=O)CC1Sc2ccccc2NC1=O (centres unmarked) [NSC637680] |  | -16.33 |  |
| NC(=S)NN=Cc1ncccc1O [NSC95678] |  | -37.43 |  |
| CN=c1sc2c(n1C)C(=O)c1ccccc1C2=O [NSC659501] |  | -27.66 |  |
| C=C1CC(Cn2cc(Br)c(=O)[nH]c2=O)(c2ccc(-c3ccccc3)cc2)OC1=O (centres unmarked) [NSC668260] |  | -9.25 |  |
| Cc1c2ccncc2cc2c1[nH]c1ccccc12 [NSC87206] |  | -25.74 |  |
| CCc1cccc(CC)c1NC(=O)C(C#N)C1=C(Cl)C(=O)c2ccccc2C1=O (centres unmarked) [NSC634503] |  | -5.79 |  |
| O=C1C(=O)c2ccccc2C(O)=C1CCCc1ccc(Oc2ccccc2)cc1 [NSC377] |  | -0.53 |  |
| CC(=O)OC1CC(n2cc(F)c(=O)[nH]c2=O)OC1CO (centres unmarked) [NSC407335] |  | -11.80 |  |
| CN1CCCC2C(c3ccccc3)C(C3=NCCCC3)C(c3ccccc3)CC21.Cl (centres unmarked) [NSC109444] |  | -58.72 |  |
| COc1ccc(C[C@@H]2NC[C@@H](O)[C@@H]2OC(C)=O)cc1.Cl [NSC147340] |  | -13.68 |  |
| CC(=O)OCc1cc(=O)n(C)c2c3c4c(cc12)c(C)cc(=O)n4CO3 [NSC157004] |  | -1.50 |  |
| CC1CCC2(OC1)OC1CC3C4CC=C5CC(OC6OC(CO)C(OC7OC(C)C(OC8OC(C)C(O)C(O)C8O)C(O)C7O)C(O)C6OC6OC(C)C(O)C(O)C6O)CCC5(C)C4CCC3(C)C1C2C (centres unmarked) [NSC306864] |  | -7.27 |  |
| O=[N+]([O-])c1ccccc1S(=O)(=O)c1ccccc1[N+](=O)[O-] [NSC633001] |  | -15.73 |  |
| O/N=C(/CC(O)(C(F)(F)F)C(F)(F)F)c1cccc(Cl)c1 [NSC664329] |  | -28.29 |  |
| O=C(O)CC(S)C(=O)O (centres unmarked) [NSC41809] |  | -14.35 |  |
| O=c1oc2cc(O)ccc2c2oc3cc(O)ccc3c12 [NSC22842] | 83.5 | 3.48 |  |
| COc1ccc(/C=C/C(=O)Oc2cc(O)cc(O)c2)cc1 [NSC175296] | 156 | 0.00 |  |

— publication PMC6687188, “Novel lactate dehydrogenase inhibitors with in vivo efficacy against Cryptosporidium parvum” (PLoS Pathogens, 2019)
